Source: patent US20060025449A1, “Use of N-substituted imino sugars for appetite suppression” (priority 2004, published 2006)

Experiments:
[1] = test system: C57B1/6 mice; assay: Effect of imino sugars admixed with diet on growth of normal control mice; format: in vivo, mouse
Experimental: Control C57B1/6 and C57BL/6O1aHsd-Lep ob mice were obtained from Harlan, UK at five weeks of age. The mice were housed under standard non-sterile conditions and fed a diet of mouse chow pelleted or expanded ground RM1 diet (SDS Ltd, Witham, Essex) with water available ad libitum. For dietary treatment of the mice with NB-DNJ or NB-DGJ, the diet and compound were admixed thoroughly as dry solids, stored at room temperature and used within 7 days. Unless indicated otherwise, mice were treated with a dose of 2400 mg/kg body weight per day, assuming an intake of around 5 g diet/day. Mice were maintained on diet with or without compound for up to six months of age and were weighed at regular intervals during the course of the experiment (see figure legends for group sizes and further experimental details). To study the effect of compound on obese mice, three groups (n=5) of ob/ob mice were monitored from five weeks of age. One group acted as control and were fed ground RM1 diet. At 6 weeks of age, the second group was started on NB-DNJ in the diet, whilst the third group started drug treatment at 12 weeks of age. All mice were then monitored for up to six months of age. […] In the first week of treatment, mice with NB-DNJ in their diet lost about 10% of their total body mass. Over the course of the following weeks, their weight stabilises. By 5 weeks of treatment they weighed 25% less than the controls. They then started to gain weight. However, after 10 weeks they remained 20% less in mass when compared with the age and sex-matched control group.

[2] = test system: male C57B1/6 mice; assay: Epididymal fat pad weight, dose-response; format: in vivo, mouse
Experimental: A dose-response relationship for the effect of increasing concentrations of NB-DNJ on adipose tissue in male C57B1/6 mice was determined by treating with doses ranging from 15 to 2400 mg/kg/day for 5 weeks. Mice were sacrificed and their epididymal fat pads excised and weighed. The results are expressed as a ratio of epididymal pad fat mass to total body weight.

[3] = test system: ob/ob mice; assay: Long-term dietary dosing of obese mice, growth curves; format: in vivo, mouse; conditions: 2400 mg/kg/d in diet
Experimental: Control C57B1/6 and C57BL/6O1aHsd-Lep ob mice were obtained from Harlan, UK at five weeks of age. The mice were housed under standard non-sterile conditions and fed a diet of mouse chow pelleted or expanded ground RM1 diet (SDS Ltd, Witham, Essex) with water available ad libitum. For dietary treatment of the mice with NB-DNJ or NB-DGJ, the diet and compound were admixed thoroughly as dry solids, stored at room temperature and used within 7 days. Unless indicated otherwise, mice were treated with a dose of 2400 mg/kg body weight per day, assuming an intake of around 5 g diet/day. Mice were maintained on diet with or without compound for up to six months of age and were weighed at regular intervals during the course of the experiment (see figure legends for group sizes and further experimental details). To study the effect of compound on obese mice, three groups (n=5) of ob/ob mice were monitored from five weeks of age. One group acted as control and were fed ground RM1 diet. […] All mice were then monitored for up to six months of age. Leptin deficient ob/ob mice are widely used as an animal model of obesity and weigh more than twice as much as a normal mouse, even when fed the same diet. The mice have as much as a five-fold increase in fat content, are hyperphagic, hypothermic, have decreased energy expenditure and are unusually efficient at converting metabolic fuels into fat. Friedman & Halas, Nature 395, 763-70 (1998). These mice were used to investigate the effect of NB-DNJ. […] As NB-DNJ was so effective at reducing white adipose tissue in normal mice, a study was performed to discover if a similar effect would occur in obese mice. […] The control obese mice grew from just over 20 g at five weeks old to about 60 g at six months of age whereas the lean controls had reached about 27 g at the same age. The group of obese mice started on NB-DNJ treatment at 7 weeks old grew at a very much reduced rate and weighed 35 g after six months (40% less than their control littermates). […]

[4] = test system: control lean mice; assay: ICV mini-pump implants, long-term intracerebro-ventricular delivery; format: in vivo, mouse
Experimental: FIG. 11. Control lean mice (n=5 in each group) had icv minipumps (50 mM imino sugar) implanted. Body weight was the monitored at regular intervals over three weeks. See example 7 for further experimental details. The effect of long-term intracerebro-ventricular delivery of imino sugars was determined by the implantation of Alzet mini-osmotic pumps (model 2004, DURECT Corporation, CA, USA) together with the brain infusion kit II which features a high stability low profile cannula. The mini-pumps were loaded with 0.24 ml imino sugar or saline vehicle. The indwelling 28 gauge stainless steel cannula was cut to a length of 2.25 mm. Mice were anaesthetised as for the ICV injections and underwent similar surgical procedures throughout. After drilling a small hole in the cranium at the midline, 2 mm posterior to Bregma, the mini-pump was positioned subcutaneously in the animal's flank and the cannula was implanted. This position and depth ensured delivery to the third cerebral ventricle. The implant was secured to the cranium using VetBond acrylic suture fluid, which was also used to close the surgical wound. The whole procedure lasted less than 9 minutes and mice were fully conscious and recovered within three minutes. For concentration of imino sugar in mini-pumps see figure legends.

[5] = test system: C57B1/6 mice; conditions: Platt et al.; cited from earlier work
[6] = ICV mini-pump 500 mM, first 24 hours

## CCCCN1C[C@H](O)[C@@H](O)[C@H](O)[C@H]1CO [NB-DNJ, N-butyldeoxynojirimycin]
[1]; 2400 mg/kg/day in diet from 6 weeks of age, first week of treatment
  loss of total body mass: about 10%
[1]; 2400 mg/kg/day in diet, after 10 weeks
  less in mass compared with age and sex-matched control group: 20%
[1]; 2400 mg/kg/day in diet, by 5 weeks of treatment
  weighed less than the controls: 25%
[2]; 5 weeks treatment, doses 15 to 2400 mg/kg/day
  lowest dose at which a reduction in fat pad weight is apparent: 15 mg/kg/day
[2]; five weeks treatment, 15 to 2400 mg/kg/day
  epididymal fat pad mass to total body weight: clear dose-related response
[3]; started at 7 weeks old
  body weight of obese mice after six months: 35 g
[3]; started at 7 weeks old, after six months
  weight less than control littermates: 40%
[3]; started at 12 weeks old, over three months
  weight at which obese mice stabilised after losing weight: less than 40 g
[4]; ICV mini-pump 50 mM, NB-DGJ as control
  reduction in food intake compared to the controls: 6%
[4]; ICV mini-pump 50 mM, after 3 weeks
  reduction of body weight: 5%
[4]; [6]
  effect on dietary intake: ate even less
  effect on weight change: lost a little more weight
[5]
  dose at which a well-defined effect on total body weight has been seen: ≥ 600 mg/kg/day
